Results published in article PMC6010916, “Safety and pharmacokinetics of veliparib extended‐release in patients with advanced solid tumors: a phase I study” (Cancer Medicine, 2018).

Tests used:
[1] = Safety: treatment-emergent adverse events (NCI CTCAE version 4.0); assay type: in vivo, human
Method: (§1) Adverse event (AE) severity was assessed according to the National Cancer Institute Common Terminology Criteria for Adverse Events (NCI CTCAE) version 4.0. Tumor evaluations were performed at screening, every 8 weeks after the first administration of study drug, and at the final visit using radiographic measurements from computed tomography or magnetic resonance imaging. Objective tumor responses were evaluated using RECIST version 1.1 criteria. Patients who received one or more doses of veliparib were included in the PK and safety analyses, as well as for evaluation of time to disease progression (TTP). Patients with one or more measurable lesion at baseline were included in the analysis of objective responses.

[2] = system: ovarian and breast carcinoma; experiment: Objective tumor response (RECIST version 1.1); assay type: in vivo, human
Method: as §1

[3] = cited from earlier work
[4] = system: non-small-cell lung cancer; triple-negative breast cancer; parameters: method as in earlier work; conditions: combined with carboplatin and paclitaxel; preliminary results; cited from earlier work
[5] = system: advanced solid tumors (ovarian, breast carcinoma); experiment: Time to disease progression (TTP); assay type: in vivo, human
Method: as §1

[6] = 16 evaluable patients with breast carcinoma (all BRCA mutation carriers)
[7] = 42 evaluable breast and ovarian carcinoma patients with deleterious BRCA mutations
[8] = 44 evaluable patients with ovarian carcinoma
[9] = Deleterious BRCA mutation, Breast (n = 16)
[10] = Deleterious BRCA mutation, Ovarian (n = 26)
[11] = Deleterious BRCA mutation, Overall (N = 42)

## C[C@]1(c2nc3c(C(N)=O)cccc3[nH]2)CCCN1 [veliparib]
[1]; Cycle 1, Part 3 (n = 12)
  SAE leading to discontinuation: 0 n (%)
  SAE leading to dose interruption: 1 (8.3) n (%)
  SAE leading to dose reduction: 0 n (%)
  TEAE: Any AE: 10 (83.3) n (%)
  TEAE: At least possibly related to study drug: 7 (58.3) n (%)
  TEAE: NCI CTCAE grade 3 or 4: 1 (8.3) n (%)
[1]; Part 1, PK BA portion (n = 24)
  Any SAE: 2 (8.3) n (%)
  SAE leading to discontinuation: 0 n (%)
  SAE leading to dose interruption: 1 (4.2) n (%)
  SAE leading to dose reduction: 0 n (%)
  TEAE: Any AE: 17 (70.8) n (%)
  TEAE: At least possibly related to study drug: 7 (29.2) n (%)
  TEAE: NCI CTCAE grade 3 or 4: 2 (8.3) n (%)
[1]; Part 1, PK phase (n = 24)
  TEAE: Abdominal pain: 3 (12.5) n (%)
  TEAE: Anemia: 1 (4.2) n (%)
  TEAE: Constipation: 0 n (%)
  TEAE: Decreased appetite: 1 (4.2) n (%)
  TEAE: Diarrhea: 2 (8.3) n (%)
  TEAE: Fatigue: 0 n (%)
  TEAE: Nausea: 4 (16.7) n (%)
  TEAE: Nausea, Grade 1: 4 (16.7) n (%)
  TEAE: Nausea, Grade 2: 0 n (%)
  TEAE: Nausea, Grade 3: 0 n (%)
  TEAE: Urinary tract infection: 0 n (%)
  TEAE: Vomiting: 1 (4.2) n (%)
  TEAE: Vomiting, Grade 1: 1 (4.2) n (%)
  TEAE: Vomiting, Grade 2: 0 n (%)
  TEAE: Vomiting, Grade 3: 0 n (%)
[1]; Part 1 extension/Part 2/Part 3
  grade 3 or 4 treatment-related anemia, patients: 0/3/0
  grade 3 or 4 treatment-related nausea, patients: 0/2/1
  grade 3 or 4 treatment-related thrombocytopenia, patients: 2/3/0
[1]; Total (N = 71)
  TEAE: Abdominal pain: 17 (23.9) n (%)
  TEAE: Constipation: 23 (32.4) n (%)
  TEAE: Decreased appetite: 15 (21.1) n (%)
  TEAE: Diarrhea: 23 (32.4) n (%)
  TEAE: Fatigue: 23 (32.4) n (%)
  TEAE: Nausea: 56 (78.9) n (%)
  TEAE: Nausea, Grade 1: 45 (63.4) n (%)
  TEAE: Nausea, Grade 2: 10 (14.1) n (%)
  TEAE: Nausea, Grade 3: 3 (4.2) n (%)
  TEAE: Urinary tract infection: 15 (21.1) n (%)
  TEAE: Vomiting: 36 (50.7) n (%)
  TEAE: Vomiting, Grade 1: 29 (40.8) n (%)
  TEAE: Vomiting, Grade 2: 5 (7.0) n (%)
  TEAE: Vomiting, Grade 3: 2 (2.8) n (%)
[1]; all cycles, 71 patients
  patients who experienced one or more TEAE: 98.6%
  patients with Grade 3 or 4 TEAEs: 39.4%
[1]; cycle 1, 71 patients
  patients who experienced one or more TEAE: 94.4%
  patients with Grade 3 or 4 TEAEs: 18.3%
[1]; overall
  grade 3 or 4 treatment-related anemia: 4.2%
  grade 3 or 4 treatment-related nausea: 4.2%
  grade 3 or 4 treatment-related thrombocytopenia: 7.0%
[1]; overall, 71 patients
  TEAE constipation, frequency: 32.4%
  TEAE diarrhea, frequency: 32.4%
  TEAE fatigue, frequency: 32.4%
  TEAE nausea, frequency: 78.9%
  TEAE vomiting, frequency: 50.7%
[2]; [6]
  confirmed partial responses: 25.0%
  partial response (confirmed and unconfirmed): 62.5%
[2]; 16 patients with breast carcinoma and deleterious BRCA mutations
  confirmed partial responses: 25.0%
[2]; 26 patients with ovarian carcinoma and deleterious BRCA mutations
  confirmed partial responses: 11.5%
[2]; [7]
  confirmed partial responses: 16.7%
  partial response (confirmed and unconfirmed): 40.5%
[2]; [8]
  confirmed partial responses: 11.4%
  partial response (confirmed and unconfirmed): 27.3%
[2]; 60 evaluable patients
  confirmed overall ORR: 15%
  overall (confirmed and unconfirmed) ORR: 36.7%
[2]; Breast (n = 16)
  CR, confirmed: 0 n (%)
  ORR (CR + PR), confirmed: 4 (25.0)— n/N (%) (95% CI)
  PR, confirmed: 4 (25.0) n (%)
[2]; [9]
  CR, confirmed: 0 n (%)
  ORR (CR + PR), confirmed: 4 (25.0) n/N (%)
  PR, confirmed: 4 (25.0) n (%)
[2]; [10]
  CR, confirmed: 0 n (%)
  ORR (CR + PR), confirmed: 3 (11.5) n/N (%)
  PR, confirmed: 3 (11.5) n (%)
[2]; [11]
  CR, confirmed: 0 n (%)
  PR, confirmed: 7 (16.7) n (%)
[2]; Ovarian (n = 44)
  CR, confirmed: 0 n (%)
  PR, confirmed: 5 (11.4) n (%)
[2]; Ovarian (n = 44), measurable lesion at baseline
  ORR (CR + PR), confirmed: 5 (11.4)— n/N (%) (95% CI)
[2]; Overall (N = 60)
  CR, confirmed: 0 n (%)
  PR, confirmed: 9 (15.0) n (%)
[2]; nine patients with unknown BRCA status and measurable disease, all ovarian carcinoma
  partial response (two confirmed, two unconfirmed): 44.4%
[2]; ovarian carcinoma patients with no BRCA mutation
  objective responses: No confirmed and one unconfirmed objective responses
[3]
  absorption: rapid absorption
  elimination: predominant elimination through urinary excretion of the unchanged drug
  oral bioavailability: high oral bioavailability
[4]
  primary endpoints (overall survival or complete pathologic response): did not meet their primary endpoints
[5]; breast carcinoma (n = 17)
  6-month TTP rate: 53.5%
[5]; deleterious BRCA mutations, breast carcinoma
  6-month TTP rate: 53.5%
[5]; deleterious BRCA mutations, ovarian carcinoma
  6-month TTP rate: 35.7%
[5]; ovarian carcinoma (n = 53)
  6-month TTP rate: 31.8%
[5]; overall (N = 71)
  6-month TTP rate (had not progressed at 6 months): 38.1%
[5]; overall population (N = 71)
  median TTP: 149 days
[5]; patients with deleterious BRCA mutations
  6-month TTP rate: 43.0%
[5]; patients without BRCA mutations
  6-month TTP rate: 22.9%
[5]; unknown BRCA mutation status
  6-month TTP rate: 27.8%
